This note sets out measurements from patent publication US20140315786A1, “USE OF INTRACELLULAR ENZYMES FOR THE RELEASE OF COVALENTLY LINKED BIOACTIVES” (Catabasis Pharmaceuticals, Inc., priority 2011, published 2014).

pIC50: −log10 of the molar value.

One assay concerns IL-1β. In words: IL-1β transcript levels in LPS-stimulated RAW264.7 macrophages. Type of assay: cell-based. The following applies: Mus musculus; RAW264.7, LPS 100 ng/ml; linked bioactive. As to the method:
RAW264.7 macrophages were seeded at a density of 100,000 cells/well in a 96-well plate in DMEM supplemented with 10% FBS and penicillin:streptomycin. 16 hours later, medium was aspirated and replaced with 90 μL/well of serum-free DMEM. Linked bioactives were brought up in 100% ethanol to a concentration of 100 mM and then diluted 1:100 in 100% FBS for a stock solution consisting of 1 mM compound and 1% ethanol. These stock solutions were then diluted 1:10 in FBS supplemented with 1% ethanol to generate a 100 μM of the linked bioactives. 10 μL was then added to the RAW246.7 cells to generate final concentrations 10 μM of the linked bioactives or 10 μM each bioactive, along with vehicle only control. The linked bioactives were allowed to pre-incubate for 2 hours before stimulation of 100 ng/ml LPS (10 μL of 1 μg/ml LPS was added to each well). Following 3 hours of LPS stimulation, cells were washed once in 1×PBS, aspirated dry, and flash frozen in liquid nitrogen. RNA was then isolated and converted to cDNA using the Cells to cDNA kit (AMBION®) according to the manufacturer's protocol. IL-1β transcript levels were then measured using Taqman primer/probe assay sets (APPLIED BIOSYSTEMS®), normalized to GAPDH using the deltaCt method, and the data expressed relative to vehicle only control.

For the next assay, the target named is T1, FAAH-2 (Homo sapiens, UniProt Q6GMR7).
T1 construct: expressed in transfected cells; host or cells: COS-7
T1 sequence (Q6GMR7 1-532): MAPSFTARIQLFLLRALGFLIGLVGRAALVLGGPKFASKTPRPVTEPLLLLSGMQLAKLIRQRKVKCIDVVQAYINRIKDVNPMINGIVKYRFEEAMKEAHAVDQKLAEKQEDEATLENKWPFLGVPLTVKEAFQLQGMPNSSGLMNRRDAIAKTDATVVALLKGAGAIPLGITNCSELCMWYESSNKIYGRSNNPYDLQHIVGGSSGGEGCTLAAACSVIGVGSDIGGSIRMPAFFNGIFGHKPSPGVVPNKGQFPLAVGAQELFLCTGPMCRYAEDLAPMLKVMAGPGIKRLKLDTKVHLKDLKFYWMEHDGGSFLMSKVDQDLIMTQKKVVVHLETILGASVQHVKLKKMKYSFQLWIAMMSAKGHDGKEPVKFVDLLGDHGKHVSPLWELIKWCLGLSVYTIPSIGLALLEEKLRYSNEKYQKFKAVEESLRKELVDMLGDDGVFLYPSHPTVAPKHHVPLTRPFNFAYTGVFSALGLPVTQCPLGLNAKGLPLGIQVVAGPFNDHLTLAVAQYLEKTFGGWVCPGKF
Kind of assay: Hydrolysis in homogenate of COS-7 cells overexpressed with FAAH-2. Format: biochemical. The following applies: 5 μM inhibitor. As to the method:
(§1) Hydrolysis experiments using COS-7 cells overexpressed with either FAAH-1 or FAAH-2. […] The next day, cells were transfected, in duplicate, with 10 μg Vector control, flag-FAAH-1 or flag-FAAH-2 plasmids using Lipofectamine 2000 (Invitrogen) according to the manufacturer's protocol. 24 hours post transfection, cells were washed 1× in cold PBS, aspirated dry, and then scraped off the plate in the presence of 0.6 mL reaction buffer (50 mM HEPES, pH 9.0; 1 mM EDTA). Cells were then homogenated using a VWR VDI 12 Adaptable Homogenizer, on ice for 1 minute, and the sample was then clarified by centrifugation at 6,000 g for 5 minutes. The supernatant of this homogenated fraction was then used for FAAH hydrolysis assays. […] Gel densitometry was performed and the % FAAH extracted in each successive lysis conditions was determined according to standard procedures.
(§2) The following hydrolysis experiments were performed using COS-7 cells containing overexpressed FAAH-1 or FAAH-2. […] Briefly, the hydrolysis experiments were carried out in Eppendorf tubes using procedures similar to the one described above. […] At time=0, 1, and 3 h, the protein was precipitated with acetonitrile.

The nature of assay [1]: Sprague Dawley rat brain homogenate promoted cleavage of a linked bioactive, with and without FAAH inhibitor URB597. Format: in vitro ADME. The following applies: FIG. 1; 5 μM inhibitor. As to the method:
The purpose of this assay was to measure the ability of Sprague Dawley rat brain homogenate to hydrolyze a linked bioactive in the presence of fatty acid amide hydrolase inhibitor URB597 (obtained from Cayman Chemical, cat #10046. Brains were harvested from male Sprague Dawley rats and were homogenized 1:4 (grams:mL) in 20 mM 4-(2-hydroxyethyl)-1-piperazineethanesulfonic acid, pH 7.0. Total protein in the rat brain homogenate was determined by a Bradford protein assay.
Linked bioactive was dissolved in methanol at 50 mM. Hydrolysis reactions were conducted with 500 μM of compound in a reaction buffer of 50 mM Hcpcs, 1 mM EDTA, 0.1% Triton X100, pH 8.0, and 1 mg/mL total protein from rat brain homogenate. Reactions were incubated at 37° C. The total reaction volume was 500 μL. Reactions were quenched by transferring 30 μL of reaction into 200 μL of acetonitrile containing 100 ng/mL of internal standard compound, after 0 hours, 1 hour, 2 hours, and 3 hours. […]
Generally, levels of parent linked bioactive and hydrolysis products were measured using an Agilent 1260 HPLC and an Agilent 6410 triple quadrapole mass spectrometer with an electrospray source and using multiple reaction monitoring and relevant mass/charge transitions. […] Injection volumes and flow rates were determined for each specific parent linked bioactive and relative hydrolysis products. […]

The next assay deals with T2, FAAH-1 (Homo sapiens, UniProt O00519).
T2 construct: expressed in transfected cells; host or cells: COS-7
T2 sequence (O00519 1-579): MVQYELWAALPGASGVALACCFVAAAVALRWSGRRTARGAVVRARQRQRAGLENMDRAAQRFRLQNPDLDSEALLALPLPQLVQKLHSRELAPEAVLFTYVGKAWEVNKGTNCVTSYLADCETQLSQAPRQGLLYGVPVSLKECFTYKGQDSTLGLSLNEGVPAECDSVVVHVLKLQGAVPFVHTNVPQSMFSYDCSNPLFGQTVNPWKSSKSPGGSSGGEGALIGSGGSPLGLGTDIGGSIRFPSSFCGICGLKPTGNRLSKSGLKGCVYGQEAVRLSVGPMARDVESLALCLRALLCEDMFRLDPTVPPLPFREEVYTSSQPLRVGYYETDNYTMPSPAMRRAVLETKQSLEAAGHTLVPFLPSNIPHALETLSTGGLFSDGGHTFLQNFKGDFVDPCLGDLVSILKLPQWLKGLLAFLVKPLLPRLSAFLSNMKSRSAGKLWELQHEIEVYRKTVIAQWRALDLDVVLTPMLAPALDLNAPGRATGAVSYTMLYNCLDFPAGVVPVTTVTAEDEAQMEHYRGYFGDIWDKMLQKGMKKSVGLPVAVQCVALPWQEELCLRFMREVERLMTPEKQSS
Kind of assay: Hydrolysis in homogenate of COS-7 cells overexpressed with FAAH-1. Format: biochemical. The settings on record: 5 μM inhibitor. As to the method: as §1, §2

As a reminder, the pIC50 is the negative decadic logarithm of the IC50, by convention in mol/L. A lower pIC50 goes with a large IC50. For `CC/C=C\C/C=C\C/C=C\C/C=C\C/C=C\C/C=C\CCC(=O)N[C@@H](C)C(=O)O[C@H](C)[C@H](NC(=O)CC/C=C\C/C=C\C/C=C\C/C=C\C/C=C\C/C=C\CC)C(=O)OC` [VI-2, (2S,3R)-2-((4Z,7Z,10Z,13Z,16Z,19Z)-docosa-4,7,10,13,16,19-hexaenoylamino)-3-[(S)-2-((4Z,7Z,10Z,13Z,16Z,19Z)-docosa-4,7,10,13,16,19-hexaenoylamino)-propionyloxy]-butyric acid methyl ester], in the assay with IL-1β, the pIC50 is 5.00.
In the case of `NC(=O)c1cccc(-c2cccc(OC(=O)NC3CCCCC3)c2)c1` [URB597], the “effect of inhibitor on hydrolysis of compound I-1, FAAH-2” value on FAAH-2 (FIG. 9B) is reported as “significantly reduced”. In addition, the “effect of inhibitor on formation of DHA from compound I-1, FAAH-2” value at FAAH-2 (FIG. 9D) was “more effective in reducing the formation of DHA”. In addition, the “effect of FAAH inhibitor on hydrolysis of the linked bioactive by rat brain homogenate” value in assay [1] is “essentially eliminated”. Also, the “effect of inhibitor on rate of hydrolysis of compound I-1, FAAH-1” value at FAAH-1 (FIG. 9A) was “significantly reduced”. For the same molecule, the “effect of inhibitor on rate of formation of DHA from compound I-1, FAAH-1” value at FAAH-1 (FIG. 9C) is listed as “significantly inhibited”.
